As usually defined, the IC50 is the concentration needed to halve the response being measured.

These results are taken from patent publication US9896435B2, “N-pyrrolidinyl,N′-pyrazolyl-urea, thiourea, guanidine and cyanoguanidine compounds as TrkA kinase inhibitors” (Array BioPharma Inc., priority 2012, dated 2018).

His-tagged recombinant human TrkA, sequence (P04629 440-796): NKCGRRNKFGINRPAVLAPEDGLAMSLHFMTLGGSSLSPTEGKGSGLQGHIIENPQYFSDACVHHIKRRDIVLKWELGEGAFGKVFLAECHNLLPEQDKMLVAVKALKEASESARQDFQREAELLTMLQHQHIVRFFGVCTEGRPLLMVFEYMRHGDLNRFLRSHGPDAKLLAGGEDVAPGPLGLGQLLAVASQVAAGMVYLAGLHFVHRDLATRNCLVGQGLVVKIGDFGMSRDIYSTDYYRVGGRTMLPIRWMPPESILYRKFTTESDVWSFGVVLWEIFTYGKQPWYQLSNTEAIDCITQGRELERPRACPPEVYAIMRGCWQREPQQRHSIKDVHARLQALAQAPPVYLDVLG

The experiment has as its target His-tagged recombinant human TrkA (Homo sapiens (Human), UniProt P04629). Briefly: TrkA LanthaScreen Eu Kinase Binding Assay. To be noted: averaged IC50; LanthaScreen binding assay of Example A; read-out: TrkA Enzyme IC50. Here is the method:
TrkA binding activity was determined in a TrkA LanthaScreen™ Eu Kinase Binding Assay. 5 nM His-tagged recombinant human TrkA (6HIS tagged cytoplasmic domain from Invitrogen, Catalog No. PV3144) was incubated with 4 nM Alexa-Fluor® Tracer 236 (Invitrogen Cat. No. PV5592), 2 nM biotinylated anti-His (Invitrogen Cat. No. PV6090), and 2 nM europium-labeled Streptavidin (Invitrogen Cat. No. PV5899), in buffer (25 mM MOPS, pH 7.5, 5 mM MgCl2, 0.005% Triton X-100). Three fold serial dilutions of compounds of the invention in DMSO were added to a final percentage of 2% DMSO. After 60-minute incubation at 22° C., the reaction was measured using the EnVision mutlimode plate reader (PerkinElmer) via TR-FRET dual wavelength detection at […]. The percent of control was calculated using a ratiometric emission factor. The IC50 values were determined by fitting a four parameter model to the percent of control data.
Table A provides averaged IC50 values for compounds of the invention when tested in the assay of Example A, where A represents an averaged IC50 value<100 nM.
For orientation: In TR-FRET formats the signal depends on donor and acceptor labels being close together.
As to `COCCN1C[C@@H](NC(=O)Nc2c(C)c(-c3cccnc3F)nn2-c2ccccc2)[C@H](c2ccc(F)c(F)c2)C1` [Example 3, 1-((3S,4R)-4-(3,4-difluorophenyl)-1-(2-methoxyethyl)pyrrolidin-3-yl)-3-(3-(2-fluoropyridin-3-yl)-4-methyl-1-phenyl-1H-pyrazol-5-yl)urea], the IC50 is under 100 nM.

Regarding `CCOc1ncc(-c2nn(-c3ccccc3)c(NC(=O)N[C@@H]3CN(CCOC)C[C@H]3c3ccc(F)c(F)c3)c2C)cn1` [Example 9, 1-((3S,4R)-4-(3,4-difluorophenyl)-1-(2-methoxyethyl)pyrrolidin-3-yl)-3-(3-(2-ethoxypyrimidin-5-yl)-4-methyl-1-phenyl-1H-pyrazol-5-yl)urea], the IC50 was under 100 nM. Consider `COCCN1C[C@@H](NC(=O)Nc2c(C)c(-c3cnc(C4CC4)nc3)nn2-c2ccccc2)[C@H](c2ccc(F)cc2)C1` [Example 11, 1-(3-(2-cyclopropylprimidin-5-yl)-4-methyl-1-phenyl-1H-pyrazol-5-yl)-3-((3S,4R)-4-(4-fluorophenyl)-1-(2-methoxyethyl)pyrrolidin-3-yl)urea], for which the IC50 was under 100 nM. For `COCCN1C[C@@H](NC(=O)Nc2c(C)c(-c3cnc(NC4CC4)nc3)nn2-c2ccccc2)[C@H](c2ccc(F)cc2)C1` [Example 21, 1-(3-(2-(cyclopropylamino)pyrimidin-5-yl)-4-methyl-1-phenyl-1H-pyrazol-5-yl)-3-((3S,4R)-4-(4-fluorophenyl)-1-(2-methoxyethyl)pyrrolidin-3-yl)urea di-trifluoroacetate], the IC50 is under 100 nM. In the case of `COCCN1C[C@@H](NC(=O)Nc2c(C)c(-c3ccc(=O)n(C)c3)nn2-c2ccccc2)[C@H](c2ccc(Cl)c(F)c2)C1` (relative stereo) [Example 23, 1-(trans-4-(4-chloro-3-fluorophenyl)-1-(2-methoxyethyl)pyrrolidin-3-yl)-3-(4-methyl-3-(1-methyl-6-oxo-1,6-dihydropyridin-3-yl)-1-phenyl-1H-pyrazol-5-yl)urea] it was under 100 nM; in that of `COCCN1C[C@@H](NC(=O)Nc2c(C)c(-c3cncc(C)c3)nn2-c2ccccc2)[C@H](c2ccc(F)c(F)c2)C1` [Example 5, 1-((3S,4R)-4-(3,4-difluorophenyl)-1-(2-methoxyethyl)pyrrolidin-3-yl)-3-(4-methyl-3-(5-methylpyridin-3-yl)-1-phenyl-1H-pyrazol-5-yl)urea], under 100 nM; in that of `COCCN1C[C@@H](NC(=O)Nc2c(C)c(-c3cnc(C)nc3)nn2-c2ccccc2)[C@H](c2ccc(F)cc2)C1` [Example 13, 1-((3S,4R)-4-(4-fluorophenyl)-1-(2-methoxyethyl)pyrrolidin-3-yl)-3-(4-methyl-3-(2-methylpyrimidin-5-yl)-1-phenyl-1H-pyrazol-5-yl)urea], under 100 nM. As for `CCOc1ncc(-c2nn(-c3ccccc3)c(NC(=O)N[C@@H]3CN(CCOC)C[C@H]3c3cc(F)cc(F)c3)c2C)cn1` [Example 16, 1-((3S,4R)-4-(3,5-difluorophenyl)-1-(2-methoxyethyl)pyrrolidin-3-yl)-3-(3-(2-ethoxypyrimidin-5-yl)-4-methyl-1-phenyl-1H-pyrazol-5-yl)urea], the IC50 was under 100 nM. Turning to `COCCN1C[C@@H](NC(=O)Nc2c(C)c(-c3ccc(=O)n(C)c3)nn2-c2ccccc2)[C@H](c2cc(F)cc(Cl)c2)C1` (relative stereo) [Example 24, 1-(trans-4-(3-chloro-5-fluorophenyl)-1-(2-methoxyethyl)pyrrolidin-3-yl)-3-(4-methyl-3-(1-methyl-6-oxo-1,6-dihydropyridin-3-yl)-1-phenyl-1H-pyrazol-5-yl)urea], the IC50 was under 100 nM. In the case of `COCCN1C[C@@H](NC(=O)Nc2c(C)c(-c3cccnc3C)nn2-c2ccccc2)[C@H](c2ccc(F)c(F)c2)C1` [Example 4, 1-((3S,4R)-4-(3,4-difluorophenyl)-1-(2-methoxyethyl)pyrrolidin-3-yl)-3-(4-methyl-3-(2-methylpyridin-3-yl)-1-phenyl-1H-pyrazol-5-yl)urea] it was under 100 nM.

As for `COCCN1C[C@@H](NC(=O)Nc2c(C)c(-c3ccc(C)nc3)nn2-c2ccccc2)[C@H](c2ccc(F)c(F)c2)C1` [Example 1, 1-((3S,4R)-4-(3,4-difluorophenyl)-1-(2-methoxyethyl)pyrrolidin-3-yl)-3-(4-methyl-3-(6-methylpyridin-3-yl)-1-phenyl-1H-pyrazol-5-yl)urea], the IC50 was under 100 nM.

Turning to `COCCN1C[C@@H](NC(=O)Nc2c(C)c(-c3ccc(=O)n(C)n3)nn2-c2ccccc2)[C@H](c2ccc(F)c(F)c2)C1` [Example 17, 1-((3S,4R)-4-(3,4-difluorophenyl)-1-(2-methoxyethyl)pyrrolidin-3-yl)-3-(4-methyl-3-(1-methyl-6-oxo-1,6-dihydropyridazin-3-yl)-1-phenyl-1H-pyrazol-5-yl)urea], the IC50 was under 100 nM. In the case of `COCCN1C[C@@H](NC(=O)Nc2c(C)c(-c3cc(C)c(=O)n(C)c3)nn2-c2ccccc2)[C@H](c2ccc(F)c(F)c2)C1` [Example 29, 1-((3S,4R)-4-(3,4-difluorophenyl)-1-(2-methoxyethyl)pyrrolidin-3-yl)-3-(3-(1,5-dimethyl-6-oxo-1,6-dihydropyridin-3-yl)-4-methyl-1-phenyl-1H-pyrazol-5-yl)urea] it was under 100 nM; in that of `COCCN1C[C@@H](NC(=O)Nc2c(C)c(-c3ccc(=O)n(C)c3)nn2-c2ccccc2)[C@H](c2cccc(Cl)c2)C1` (relative stereo) [Example 25, 1-(trans-4-(3-chlorophenyl)-1-(2-methoxyethyl)pyrrolidin-3-yl)-3-(4-methyl-3-(1-methyl-6-oxo-1,6-dihydropyridin-3-yl)-1-phenyl-1H-pyrazol-5-yl)urea], under 100 nM; in that of `COCCN1C[C@@H](NC(=O)Nc2c(C)c(-c3ccc(OC)nc3)nn2-c2ccccc2)[C@H](c2ccc(F)c(F)c2)C1` [Example 8, 1-((3S,4R)-4-(3,4-difluorophenyl)-1-(2-methoxyethyl)pyrrolidin-3-yl)-3-(3-(6-methoxypyridin-3-yl)-4-methyl-1-phenyl-1H-pyrazol-5-yl)urea], under 100 nM. For the molecule `COCCN1C[C@@H](NC(=O)Nc2c(C)c(-c3ccc(=O)n(C)c3)nn2-c2ccccc2)[C@H](c2cccc(F)c2)C1` [Example 27, 1-((3S,4R)-4-(3-fluorophenyl)-1-(2-methoxyethyl)pyrrolidin-3-yl)-3-(4-methyl-3-(1-methyl-6-oxo-1,6-dihydropyridin-3-yl)-1-phenyl-1H-pyrazol-5-yl)urea], the IC50 is under 100 nM.

Take `CCOc1ncc(-c2nn(-c3ccccc3)c(NC(=O)N[C@@H]3CN(CCOC)C[C@H]3c3ccc(F)cc3)c2C)cn1` [Example 15, 1-(3-(2-ethoxypyrimidin-5-yl)-4-methyl-1-phenyl-1H-pyrazol-5-yl)-3-((3S,4R)-4-(4-fluorophenyl)-1-(2-methoxyethyl)pyrrolidin-3-yl)urea]: the IC50 is under 100 nM.

Turning to `COCCN1C[C@@H](NC(=O)Nc2c(C)c(-c3cncc(C#N)c3)nn2-c2ccccc2)[C@H](c2ccc(F)c(F)c2)C1` [Example 7, 1-(3-(5-cyanopyridin-3-yl)-4-methyl-1-phenyl-1H-pyrazol-5-yl)-3-((3S,4R)-4-(3,4-difluorophenyl)-1-(2-methoxyethyl)pyrrolidin-3-yl)urea], the IC50 was under 100 nM.

With `COCCN1C[C@@H](NC(=O)Nc2c(C)c(-c3ccc(=O)n(C)n3)nn2-c2ccccc2)[C@H](c2ccc(F)cc2)C1` [Example 18, 1-((3S,4R)-4-(4-fluorophenyl)-1-(2-methoxyethyl)pyrrolidin-3-yl)-3-(4-methyl-3-(1-methyl-6-oxo-1,6-dihydropyridazin-3-yl)-1-phenyl-1H-pyrazol-5-yl)urea], the IC50 is under 100 nM. In the case of `COCCN1C[C@@H](NC(=O)Nc2c(C)c(S(C)(=O)=O)nn2-c2ccccc2)[C@H](c2ccc(F)c(F)c2)C1` [Example 30, 1-((3S,4R)-4-(3,4-difluorophenyl)-1-(2-methoxyethyl)pyrrolidin-3-yl)-3-(4-methyl-3-(methylsulfonyl)-1-phenyl-1H-pyrazol-5-yl)urea] it was under 100 nM; in that of `COCCN1C[C@@H](NC(=O)Nc2c(C)c(-c3cnc(=O)n(C)c3)nn2-c2ccccc2)[C@H](c2ccc(F)c(F)c2)C1` [Example 28, 1-((3S,4R)-4-(3,4-difluorophenyl)-1-(2-methoxyethyl)pyrrolidin-3-yl)-3-(4-methyl-3-(1-methyl-2-oxo-1,2-dihydropyrimidin-5-yl)-1-phenyl-1H-pyrazol-5-yl)urea], under 100 nM; in that of `COCCN1C[C@@H](NC(=O)Nc2c(C)c(C(C)=O)nn2-c2ccccc2)[C@H](c2ccc(F)c(F)c2)C1` [Example 31, 1-(3-acetyl-4-methyl-1-phenyl-1H-pyrazol-5-yl)-3-((3S,4R)-4-(3,4-difluorophenyl)-1-(2-methoxyethyl)pyrrolidin-3-yl)urea], under 100 nM. For the molecule `COCCN1C[C@@H](NC(=O)Nc2c(C)c(-c3cnc(OC)nc3)nn2-c2ccccc2)[C@H](c2cc(F)cc(F)c2)C1` [Example 12, 1-((3S,4R)-4-(3,5-difluorophenyl)-1-(2-methoxyethyl)pyrrolidin-3-yl)-3-(3-(2-methoxypyrimidin-5-yl)-4-methyl-1-phenyl-1H-pyrazol-5-yl)urea], the IC50 was under 100 nM.
